Assay results published in patent publication US9695155B2, “Herbicidal substituted pyrimidinyloxy benzene compounds” (E. I. DU PONT DE NEMOURS AND COMPANY, priority 2013, dated 2017).

Columns and labels:
sandbur = assay: Test E preemergence; assay type: in vivo, Cenchrus echinatus; conditions: for Sandbur plant response rating: scale 0 to 100 (0 no effect, 100 complete control); for Plant response rating, Sandbur: scale 0 to 100, 0 no effect, 100 complete control
Procedure, shortened: (§1)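 Test chemicals formulated in a non-phytotoxic solvent mixture containing a surfactant were applied preemergence to seeds in silt loam soil or postemergence to plants at the 1- to 4-leaf stage in potting mix. After 14 to 21 days in a greenhouse, injury was visually rated against controls on a 0-100 scale (0 = no effect, 100 = complete control).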

kochia = assay: Test E preemergence; assay type: in vivo, Kochia scoparia; conditions: for Kochia plant response rating: scale 0 to 100 (0 no effect, 100 complete control); for Plant response rating, Kochia: scale 0 to 100, 0 no effect, 100 complete control
Procedure, shortened: as §1

soybean = assay: Test E preemergence; assay type: in vivo, Glycine max; conditions: for Soybean plant response rating: scale 0 to 100 (0 no effect, 100 complete control); for Plant response rating, Soybean: scale 0 to 100, 0 no effect, 100 complete control
Procedure, shortened: as §1

Italian ryegrass = assay: Test E preemergence; assay type: in vivo, Lolium multiflorum; conditions: for Ryegrass, Italian plant response rating: scale 0 to 100 (0 no effect, 100 complete control); for Plant response rating, Ryegrass, Italian: scale 0 to 100, 0 no effect, 100 complete control
Procedure, shortened: as §1

giant foxtail = assay: Test E preemergence; assay type: in vivo, Setaria faberii; conditions: for Foxtail, Giant plant response rating: scale 0 to 100 (0 no effect, 100 complete control); for Plant response rating, Foxtail, Giant: scale 0 to 100, 0 no effect, 100 complete control
Procedure, shortened: as §1

palmer pigweed = assay: Test E preemergence; assay type: in vivo, Amaranthus palmeri; conditions: for Pigweed, Palmer plant response rating: scale 0 to 100 (0 no effect, 100 complete control); for Plant response rating, Pigweed, Palmer: scale 0 to 100, 0 no effect, 100 complete control
Procedure, shortened: as §1

rice = assay: Test C flooded paddy test; assay type: in vivo, Oryza sativa; conditions: Flood, scale 0 to 100 (0 no effect, 100 complete control), 13 to 15 days
Procedure, shortened: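 In-water treatment: compound dosed into 3 cm flood over soil, water level unchanged throughout. Controls run alongside; visual assessment at day 13–15.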

surinam grass = assay: Test E preemergence; assay type: in vivo, Brachiaria decumbens; conditions: for Surinam Grass plant response rating: scale 0 to 100 (0 no effect, 100 complete control); for Plant response rating, Surinam Grass: scale 0 to 100, 0 no effect, 100 complete control
Procedure, shortened: as §1

yellow nutsedge = assay: Test E preemergence; assay type: in vivo, Cyperus esculentus; conditions: for Nutsedge, Yellow plant response rating: scale 0 to 100 (0 no effect, 100 complete control); for Plant response rating, Nutsedge, Yellow: scale 0 to 100, 0 no effect, 100 complete control
Procedure, shortened: as §1

blackgrass = assay: Test A postemergence; assay type: in vivo, Alopecurus myosuroides; conditions: 0 to 100 scale where 0 is no effect and 100 is complete control
Procedure, shortened: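 Scoring: eye-based comparison with untreated controls, 0 for no effect through 100 for complete control, at about day 10. Treatments: directed soil spray preemergence; foliar spray postemergence on 2–10 cm plants at the one- to two-leaf stage. Medium: loam soil with sand.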

N#Cc1cccc(Oc2ncc(Br)cn2)c1-n1cc(C(F)(F)F)cn1 [Compound 59, 3-[(5-bromo-2-pyrimidinyl)oxy]-2-[4-(trifluoromethyl)-1H-pyrazol-1-yl]benzonitrile]
50: Plant response rating, Sandbur (sandbur; 125 g ai/ha) | Plant response rating, Soybean (soybean; 125 g ai/ha) | Ryegrass, Italian plant response rating (Italian ryegrass; 62 g ai/ha) | Plant response rating, Nutsedge, Yellow (yellow nutsedge; 250 g ai/ha)
5: Foxtail, Giant plant response rating (giant foxtail; 16 g ai/ha) | Surinam Grass plant response rating (surinam grass; 62 g ai/ha)
65: Plant response rating, Surinam Grass (surinam grass; 250 g ai/ha)
20: Kochia plant response rating (kochia; 16 g ai/ha) | Plant response rating, Rice (rice; 125 g ai/ha) | Plant response rating, Rice (rice; 250 g ai/ha) | Plant response rating, Surinam Grass (surinam grass; 125 g ai/ha)
35: Pigweed, Palmer plant response rating (palmer pigweed; 16 g ai/ha)
0: Sandbur plant response rating (sandbur; 16 g ai/ha) | Soybean plant response rating (soybean; 16 g ai/ha) | Soybean plant response rating (soybean; 31 g ai/ha) | Ryegrass, Italian plant response rating (Italian ryegrass; 16 g ai/ha) | Ryegrass, Italian plant response rating (Italian ryegrass; 31 g ai/ha) | Plant response rating, Rice (rice; 31 g ai/ha) | Surinam Grass plant response rating (surinam grass; 16 g ai/ha) | Surinam Grass plant response rating (surinam grass; 31 g ai/ha) | Nutsedge, Yellow plant response rating (yellow nutsedge; 16 g ai/ha) | Nutsedge, Yellow plant response rating (yellow nutsedge; 31 g ai/ha) | Nutsedge, Yellow plant response rating (yellow nutsedge; 62 g ai/ha)
30: Sandbur plant response rating (sandbur; 62 g ai/ha) | Plant response rating, Nutsedge, Yellow (yellow nutsedge; 125 g ai/ha)
80: Kochia plant response rating (kochia; 31 g ai/ha)
15: Sandbur plant response rating (sandbur; 31 g ai/ha) | Plant response rating, Rice (rice; 62 g ai/ha)
100: Kochia plant response rating (kochia; 62 g ai/ha) | Plant response rating, Kochia (kochia; 125 g ai/ha) | Plant response rating, Kochia (kochia; 250 g ai/ha) | Plant response rating, Foxtail, Giant (giant foxtail; 125 g ai/ha) | Plant response rating, Foxtail, Giant (giant foxtail; 250 g ai/ha) | Pigweed, Palmer plant response rating (palmer pigweed; 31 g ai/ha) | Pigweed, Palmer plant response rating (palmer pigweed; 62 g ai/ha) | Plant response rating, Pigweed, Palmer (palmer pigweed; 125 g ai/ha) | Plant response rating, Pigweed, Palmer (palmer pigweed; 250 g ai/ha)
10: Foxtail, Giant plant response rating (giant foxtail; 31 g ai/ha)
85: Foxtail, Giant plant response rating (giant foxtail; 62 g ai/ha)
75: Plant response rating, Ryegrass, Italian (Italian ryegrass; 125 g ai/ha)
95: Plant response rating, Sandbur (sandbur; 250 g ai/ha) | Plant response rating, Soybean (soybean; 250 g ai/ha) | Plant response rating, Ryegrass, Italian (Italian ryegrass; 250 g ai/ha)

N#Cc1cccc(Oc2ncc(F)cn2)c1-n1cc(I)cn1 [Compound 86]
100: Kochia plant response rating (kochia; 62 g ai/ha) | Plant response rating, Kochia (kochia; 125 g ai/ha) | Plant response rating, Foxtail, Giant (giant foxtail; 125 g ai/ha) | Pigweed, Palmer plant response rating (palmer pigweed; 62 g ai/ha) | Plant response rating, Pigweed, Palmer (palmer pigweed; 125 g ai/ha) | Plant response rating, Blackgrass (blackgrass; 500 g ai/ha)
20: Plant response rating, Nutsedge, Yellow (yellow nutsedge; 125 g ai/ha)
5: Plant response rating, Ryegrass, Italian (Italian ryegrass; 125 g ai/ha)
30: Foxtail, Giant plant response rating (giant foxtail; 62 g ai/ha)
10: Sandbur plant response rating (sandbur; 31 g ai/ha) | Sandbur plant response rating (sandbur; 62 g ai/ha) | Plant response rating, Sandbur (sandbur; 125 g ai/ha)
90: Kochia plant response rating (kochia; 31 g ai/ha) | Plant response rating, Blackgrass (blackgrass; 125 g ai/ha)
15: Foxtail, Giant plant response rating (giant foxtail; 31 g ai/ha)
35: Soybean plant response rating (soybean; 62 g ai/ha)
0: Sandbur plant response rating (sandbur; 16 g ai/ha) | Kochia plant response rating (kochia; 16 g ai/ha) | Soybean plant response rating (soybean; 16 g ai/ha) | Soybean plant response rating (soybean; 31 g ai/ha) | Ryegrass, Italian plant response rating (Italian ryegrass; 16 g ai/ha) | Ryegrass, Italian plant response rating (Italian ryegrass; 31 g ai/ha) | Ryegrass, Italian plant response rating (Italian ryegrass; 62 g ai/ha) | Foxtail, Giant plant response rating (giant foxtail; 16 g ai/ha) | Pigweed, Palmer plant response rating (palmer pigweed; 31 g ai/ha) | Surinam Grass plant response rating (surinam grass; 16 g ai/ha) | Surinam Grass plant response rating (surinam grass; 31 g ai/ha) | Surinam Grass plant response rating (surinam grass; 62 g ai/ha) | Plant response rating, Surinam Grass (surinam grass; 125 g ai/ha) | Nutsedge, Yellow plant response rating (yellow nutsedge; 16 g ai/ha) | Nutsedge, Yellow plant response rating (yellow nutsedge; 31 g ai/ha) | Nutsedge, Yellow plant response rating (yellow nutsedge; 62 g ai/ha)
60: Plant response rating, Soybean (soybean; 125 g ai/ha)

N#Cc1cccc(Oc2ncc(Br)cn2)c1-n1cc(I)cn1 [Compound 88]
25: Plant response rating, Foxtail, Giant (giant foxtail; 125 g ai/ha)
0: Sandbur plant response rating (sandbur; 16 g ai/ha) | Sandbur plant response rating (sandbur; 31 g ai/ha) | Sandbur plant response rating (sandbur; 62 g ai/ha) | Kochia plant response rating (kochia; 16 g ai/ha) | Kochia plant response rating (kochia; 31 g ai/ha) | Soybean plant response rating (soybean; 31 g ai/ha) | Ryegrass, Italian plant response rating (Italian ryegrass; 16 g ai/ha) | Ryegrass, Italian plant response rating (Italian ryegrass; 31 g ai/ha) | Ryegrass, Italian plant response rating (Italian ryegrass; 62 g ai/ha) | Plant response rating, Ryegrass, Italian (Italian ryegrass; 125 g ai/ha) | Foxtail, Giant plant response rating (giant foxtail; 16 g ai/ha) | Foxtail, Giant plant response rating (giant foxtail; 31 g ai/ha) | Foxtail, Giant plant response rating (giant foxtail; 62 g ai/ha) | Pigweed, Palmer plant response rating (palmer pigweed; 16 g ai/ha) | Pigweed, Palmer plant response rating (palmer pigweed; 31 g ai/ha) | Pigweed, Palmer plant response rating (palmer pigweed; 62 g ai/ha) | Surinam Grass plant response rating (surinam grass; 16 g ai/ha) | Surinam Grass plant response rating (surinam grass; 31 g ai/ha) | Surinam Grass plant response rating (surinam grass; 62 g ai/ha) | Nutsedge, Yellow plant response rating (yellow nutsedge; 16 g ai/ha) | Nutsedge, Yellow plant response rating (yellow nutsedge; 31 g ai/ha) | Nutsedge, Yellow plant response rating (yellow nutsedge; 62 g ai/ha) | Plant response rating, Nutsedge, Yellow (yellow nutsedge; 125 g ai/ha)
10: Plant response rating, Sandbur (sandbur; 125 g ai/ha) | Plant response rating, Surinam Grass (surinam grass; 125 g ai/ha)
35: Kochia plant response rating (kochia; 62 g ai/ha) | Soybean plant response rating (soybean; 16 g ai/ha)
70: Plant response rating, Blackgrass (blackgrass; 125 g ai/ha)
100: Plant response rating, Blackgrass (blackgrass; 500 g ai/ha)
50: Plant response rating, Kochia (kochia; 125 g ai/ha)
20: Soybean plant response rating (soybean; 62 g ai/ha) | Plant response rating, Soybean (soybean; 125 g ai/ha)
75: Plant response rating, Pigweed, Palmer (palmer pigweed; 125 g ai/ha)
